According to ChEMBL document CHEMBL1201862, “PubChem BioAssay data set” (2004):
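Cells were grown in 96-well plates and exposed to each compound for 48 hours at five concentrations; endpoints were interpolated linearly between bracketing concentrations, or set to the highest concentration if not reached. GI50 is the concentration that inhibits growth by half.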 Calls of active or inactive are those of the source. Rule as the data show it: active = GI50 up to about 1.1 µM and inactive = higher.

Experiments:
Test in all cases: NCI-60 cell line screen, 48 h
[1] = tested on: MDA-MB-231
[2] = tested on: OVCAR-5
[3] = tested on: SF-539
[4] = tested on: SN12C
[5] = tested on: HCT-116
[6] = tested on: RXF 393
[7] = tested on: COLO 205
[8] = tested on: BT-549
[9] = tested on: OVCAR-3
[10] = tested on: M14
[11] = tested on: U-251
[12] = tested on: UACC-257
[13] = tested on: EKVX
[14] = tested on: MDA-MB-435
[15] = tested on: OVCAR-8
[16] = tested on: SK-OV-3
[17] = tested on: MDA-N
[18] = tested on: TK-10
[19] = tested on: IGROV-1
[20] = tested on: DU-145
[21] = tested on: MCF7
[22] = tested on: SW-620
[23] = tested on: NCI/ADR-RES
[24] = tested on: SNB-19
[25] = tested on: SK-MEL-28
[26] = tested on: NCI-H460
[27] = tested on: UACC-62
[28] = tested on: KM12
[29] = tested on: RPMI-8226
[30] = tested on: A498
[31] = tested on: LOX IMVI
[32] = tested on: CAKI-1
[33] = tested on: A549
[34] = tested on: OVCAR-4
[35] = tested on: HOP-62
[36] = tested on: HT-29
[37] = tested on: SK-MEL-2
[38] = tested on: HOP-92
[39] = tested on: SK-MEL-5
[40] = tested on: SNB-75
[41] = tested on: Malme-3M
[42] = tested on: ACHN
[43] = tested on: UO-31
[44] = tested on: K562
[45] = tested on: SF-268
[46] = tested on: Hs-578T
[47] = tested on: T47D
[48] = tested on: NCI-H522
[49] = tested on: SF-295
[50] = tested on: 786-0
[51] = tested on: HL-60
[52] = tested on: HCC 2998
[53] = tested on: PC-3
[54] = tested on: NCI-H226
[55] = tested on: HCT-15
[56] = tested on: MOLT-4
[57] = tested on: CCRF-CEM
[58] = tested on: NCI-H23

Question: For O=C(O)c1c(Br)c(Br)c(Br)c(Br)c1C1c2ccc(O)cc2Oc2cc(O)ccc21, which GI50 [1] is on record?
Answer: > 100 µM (inactive)

Question: And the GI50 [2]?
Answer: > 100 µM (inactive)

Question: What about the GI50 [3] of the same molecule?
Answer: > 100 µM (inactive)

Question: What about the GI50 [4] of the same molecule?
Answer: > 100 µM (inactive)

Question: What about the GI50 [5] of the same molecule?
Answer: > 100 µM (inactive)

Question: What about the GI50 [6] of the same molecule?
Answer: > 100 µM (inactive)

Question: And the GI50 [7]?
Answer: > 100 µM (inactive)

Question: What about the GI50 [8] of the same molecule?
Answer: > 100 µM (inactive)

Question: And the GI50 [9]?
Answer: > 100 µM (inactive)

Question: And the GI50 [10]?
Answer: > 100 µM (inactive)

Question: What about the GI50 [11] of the same molecule?
Answer: > 100 µM (inactive)

Question: And the GI50 [12]?
Answer: > 100 µM (inactive)

Question: And the GI50 [13]?
Answer: > 100 µM (inactive)

Question: What about the GI50 [14] of the same molecule?
Answer: > 100 µM (inactive)

Question: And the GI50 [15]?
Answer: > 100 µM (inactive)

Question: What about the GI50 [16] of the same molecule?
Answer: > 100 µM (inactive)

Question: What about the GI50 [17] of the same molecule?
Answer: > 100 µM (inactive)

Question: What about the GI50 [18] of the same molecule?
Answer: > 100 µM (inactive)

Question: What about the GI50 [19] of the same molecule?
Answer: > 100 µM (inactive)

Question: And the GI50 [20]?
Answer: > 100 µM (inactive)

Question: What about the GI50 [21] of the same molecule?
Answer: > 100 µM (inactive)

Question: And the GI50 [22]?
Answer: > 100 µM (inactive)

Question: And the GI50 [23]?
Answer: > 100 µM (inactive)

Question: And the GI50 [24]?
Answer: > 100 µM (inactive)

Question: And the GI50 [25]?
Answer: > 100 µM (inactive)

Question: What about the GI50 [26] of the same molecule?
Answer: > 100 µM (inactive)

Question: What about the GI50 [27] of the same molecule?
Answer: > 100 µM (inactive)

Question: What about the GI50 [28] of the same molecule?
Answer: > 100 µM (inactive)

Question: And the GI50 [29]?
Answer: > 100 µM (inactive)

Question: And the GI50 [30]?
Answer: > 100 µM (inactive)

Question: And the GI50 [31]?
Answer: > 100 µM (inactive)

Question: And the GI50 [32]?
Answer: > 100 µM (inactive)

Question: And the GI50 [33]?
Answer: > 100 µM (inactive)

Question: And the GI50 [34]?
Answer: > 100 µM (inactive)

Question: And the GI50 [35]?
Answer: > 100 µM (inactive)

Question: What about the GI50 [36] of the same molecule?
Answer: > 100 µM (inactive)

Question: What about the GI50 [37] of the same molecule?
Answer: > 100 µM (inactive)

Question: What about the GI50 [38] of the same molecule?
Answer: > 100 µM (inactive)

Question: What about the GI50 [39] of the same molecule?
Answer: > 100 µM (inactive)

Question: And the GI50 [40]?
Answer: > 100 µM (inactive)

Question: And the GI50 [41]?
Answer: > 100 µM (inactive)

Question: And the GI50 [42]?
Answer: > 100 µM (inactive)

Question: And the GI50 [43]?
Answer: 33 µM (inactive)

Question: And the GI50 [44]?
Answer: > 100 µM (inactive)

Question: And the GI50 [45]?
Answer: > 100 µM (inactive)

Question: And the GI50 [46]?
Answer: > 100 µM (inactive)

Question: And the GI50 [47]?
Answer: > 100 µM (inactive)

Question: What about the GI50 [48] of the same molecule?
Answer: > 100 µM (inactive)

Question: And the GI50 [49]?
Answer: > 100 µM (inactive)

Question: And the GI50 [50]?
Answer: > 100 µM (inactive)

Question: What about the GI50 [51] of the same molecule?
Answer: 232 nM (active)

Question: And the GI50 [52]?
Answer: 68.1 µM (inactive)

Question: What about the GI50 [53] of the same molecule?
Answer: > 100 µM (inactive)

Question: And the GI50 [54]?
Answer: > 100 µM (inactive)

Question: And the GI50 [55]?
Answer: > 100000 nM

Question: What about the GI50 [56] of the same molecule?
Answer: 3.67 µM (inactive)

Question: What does the source list for COc1ccc(-c2cc(=O)c3c(O)c(OC)c(O)cc3o2)cc1O?
Answer: GI50 [1]: 5.51 µM (inactive); GI50 [2]: 32.8 µM (inactive); GI50 [3]: 2.69 µM (inactive); GI50 [4]: 6.68 µM (inactive); GI50 [5]: 3.48 µM (inactive); GI50 [6]: 9.4 µM (inactive); GI50 [7]: 20.6 µM (inactive); GI50 [8]: 19.3 µM (inactive); GI50 [9]: 9.04 µM (inactive); GI50 [10]: 3.4 µM (inactive); GI50 [11]: 5.26 µM (inactive); GI50 [12]: 8.02 µM (inactive); GI50 [13]: 9.25 µM (inactive); GI50 [14]: 0.582 µM (active); GI50 [15]: 9.55 µM (inactive); GI50 [16]: 6.28 µM (inactive); GI50 [17]: 0.406 µM (active); GI50 [18]: 68.2 µM (inactive); GI50 [19]: 4.62 µM (inactive); GI50 [57]: 3.7 µM (inactive); GI50 [20]: 7.64 µM (inactive); GI50 [21]: 3.79 µM (inactive); GI50 [22]: 3.13 µM (inactive); GI50 [23]: 2.69 µM (inactive); GI50 [24]: 13.6 µM (inactive); GI50 [25]: 22.5 µM (inactive); GI50 [26]: 3.3 µM (inactive); GI50 [27]: 4.04 µM (inactive); GI50 [28]: 3.18 µM (inactive); GI50 [29]: 2.45 µM (inactive); GI50 [30]: 4.9 µM (inactive); GI50 [31]: 3.51 µM (inactive); GI50 [32]: 13.9 µM (inactive); GI50 [33]: 6.4 µM (inactive); GI50 [34]: 50.5 µM (inactive); GI50 [35]: 6.9 µM (inactive); GI50 [36]: 16 µM (inactive); GI50 [37]: 3.93 µM (inactive); GI50 [38]: 15 µM (inactive); GI50 [58]: 17.7 µM (inactive); GI50 [39]: 3.41 µM (inactive); GI50 [40]: 3.65 µM (inactive); GI50 [41]: 1.3 µM (inactive); GI50 [42]: 13.8 µM (inactive); GI50 [43]: 6.27 µM (inactive); GI50 [44]: 0.679 µM (active); GI50 [45]: 10.7 µM (inactive); GI50 [46]: 3.08 µM (inactive); GI50 [47]: 5.94 µM (inactive); GI50 [48]: 1.97 µM (inactive); GI50 [49]: 2.83 µM (inactive); GI50 [50]: 4.95 µM (inactive); GI50 [51]: 1250 nM (inactive); GI50 [52]: 6.12 µM (inactive); GI50 [53]: 10 µM (inactive); GI50 [54]: 35 µM (inactive); GI50 [55]: 1900 nM; GI50 [56]: 3.19 µM (inactive)
